# Square brackets hold non-standard residues; d marks the D form. Peptide text beside a SMILES is read from it. pY = N[C@@H](Cc1ccc(OP(=O)(O)O)cc1)C(=O)O; Ahp = NCCCCCCC(=O)O
# Test: Binding affinity against c-Src tyrosine kinase SH2 domain expressed as ratio of IC50 of test compound over IC50 of AcYEEIE
row,SMILES,Ratio
1,CCCCCN(CCCCC)C(=O)[C@H](CCC(=O)O)NC(=O)[C@H](Cc1ccc(OP(=O)(O)O)cc1)NC(=O)c1ccc(Cl)cc1,39
2,CCCCCCN(CCCCCC)C(=O)[C@H](CCC(=O)O)NC(=O)[C@H](Cc1ccc(OP(=O)(O)O)cc1)NC(C)=O,24
3,CCCCCN(CCCCC)C(=O)[C@H](CCC(=O)O)NC(=O)[C@H](Cc1ccc(OP(=O)(O)O)cc1)NC(=O)Nc1ccc(OC)cc1,13.5
4,CCCCCN(CCC(=O)OCC)C(=O)[C@H](CCC(=O)O)NC(=O)[C@H](Cc1ccc(OP(=O)(O)O)cc1)NC(C)=O,26
5,CCCCCNC(=O)[C@H](CCC(=O)O)NC(=O)[C@H](Cc1ccc(OP(=O)(O)O)cc1)NC(C)=O,16.6
6,CC(=O)N[C@@H](Cc1ccc(OP(=O)(O)O)cc1)C(=O)N[C@@H](CCC(=O)O)C(=O)N(C)CCCCCCCCO,2.2
7,CCCCCN(CCCCC)C(=O)[C@H](CCC(=O)O)NC(=O)[C@H](Cc1ccc(OP(=O)(O)O)cc1)NC(=O)CSCc1ccccc1,18.9
8,CCCCCN(CCCCC)C(=O)[C@H](CCC(=O)O)NC(=O)[C@H](Cc1ccc(OP(=O)(O)O)cc1)NC(=O)c1ccc(OC)cc1,7.2
9,CCCCCN(CCCCC)C(=O)[C@H](CCC(=O)O)NC(=O)[C@H](Cc1ccc(OP(=O)(O)O)cc1)NC(=O)CCc1ccccc1,10.8
10,CC(=O)N[C@@H](Cc1ccc(OP(=O)(O)O)cc1)C(=O)N[C@@H](CCC(=O)O)C(=O)O (Ac-[pY]-Glu-OH),606
11,CC(=O)N[C@@H](Cc1ccc(OP(=O)(O)O)cc1)C(=O)N[C@@H](CCC(=O)O)C(=O)N(C)CCCc1c(C(N)=O)[nH]c2ccccc12,9.3
12,CCCCCN(CCCCC)C(=O)[C@H](CCS(C)(=O)=O)NC(=O)[C@H](Cc1ccc(OP(=O)(O)O)cc1)NC(C)=O,75.3
13,CCCCCCCN(CCCCCCC)C(=O)[C@H](CCC(=O)O)NC(=O)[C@H](Cc1ccc(OP(=O)(O)O)cc1)NC(C)=O,327
14,CCCCCN(CCCCC)C(=O)[C@H](CCSC)NC(=O)[C@H](Cc1ccc(OP(=O)(O)O)cc1)NC(C)=O,16.5
15,CC(=O)N[C@@H](Cc1ccc(OP(=O)(O)O)cc1)C(=O)N[C@@H](CCC(=O)O)C(N)=O (Ac-[pY]-Glu-NH2),200
16,CC(=O)N[C@@H](Cc1ccc(OP(=O)(O)O)cc1)C(=O)N[C@@H](CCC(=O)O)C(=O)N(C)CCCCCCCO,3.6
17,CCCCCN(CCCCC)C(=O)[C@H](CCC(=O)O)NC(=O)[C@H](Cc1ccc(OP(=O)(O)O)cc1)NC(=O)Nc1ccc(N)cc1,26.9
18,CCCCCN(CCCCC)C(=O)[C@H](CCC(=O)O)NC(=O)[C@H](Cc1ccc(OP(=O)(O)O)cc1)NC(=O)c1ccccc1,15.3
19,CCCCCN(CCCCC)C(=O)[C@H](CCC(=O)O)NC(=O)[C@H](Cc1ccc(OP(=O)(O)O)cc1)NC(=O)CCc1ccc(O)cc1,26.7
20,CCCCCN(CCCCC)C(=O)[C@H](CCC(=O)O)NC(=O)[C@H](Cc1ccc(OP(=O)(O)O)cc1)NC(=O)CSc1ccccc1,17.7
21,CC(=O)N[C@@H](Cc1ccc(OP(=O)(O)O)cc1)C(=O)N[C@@H](CCC(=O)O)C(=O)NCCCCCCC(N)=O (Ac-[pY]-Glu-[Ahp]-NH2),115
22,CC(=O)N[C@@H](Cc1ccc(OP(=O)(O)O)cc1)C(=O)N[C@@H](CCC(=O)O)C(=O)NCCCCCCC(=O)O (Ac-[pY]-Glu-[Ahp]-OH),36.7
23,CCCCCN(CCCCC)C(=O)[C@H](CCC(=O)O)NC(=O)[C@H](Cc1ccc(OP(=O)(O)O)cc1)NC(=O)C(F)(F)F,57.2
24,CC(=O)N[C@@H](Cc1ccc(OP(=O)(O)O)cc1)C(=O)N[C@@H](CCC(=O)O)C(=O)NCCc1c[nH]c2ccc(O)cc12,31.5
25,CCCCCN(CCCCC)C(=O)[C@H](CSC)NC(=O)[C@H](Cc1ccc(OP(=O)(O)O)cc1)NC(C)=O,33.1
26,CCCCCN(CCCCC)C(=O)[C@H](CCC(=O)O)NC(=O)[C@H](Cc1ccc(OP(=O)(O)O)cc1)NC(=O)c1ccc(C(F)(F)F)cc1,25.4

# The next lines start with the values.
row,Ratio,SMILES
1,6.4,CC(=O)N[C@@H](Cc1ccc(OP(=O)(O)O)cc1)C(=O)N[C@@H](CCC(=O)O)C(=O)N(C)CCCCCCO
2,184,CCCCCN(CCCCC)C(=O)[C@H](CCC(=O)O)NC(=O)[C@H](Cc1ccc(OP(=O)(O)O)cc1)NC(=O)Nc1ccc([N+](=O)[O-])cc1
3,48,CCCCCN(CCC(=O)O)C(=O)[C@H](CCC(=O)O)NC(=O)[C@H](Cc1ccc(OP(=O)(O)O)cc1)NC(C)=O
4,31.8,CC(=O)N[C@@H](Cc1ccc(OP(=O)(O)O)cc1)C(=O)N[C@@H](CCC(=O)O)C(=O)N(C)CCc1c[nH]c2ccccc12
5,92.1,CCCCCN(CCCCC)C(=O)[C@H](CCC(=O)O)NC(=O)[C@H](Cc1ccc(OP(=O)(O)O)cc1)NC(=O)Cc1ccc(CN)cc1
6,12,CCCCCN(C)C(=O)[C@H](CCC(=O)O)NC(=O)[C@H](Cc1ccc(OP(=O)(O)O)cc1)NC(C)=O
7,16.5,CCCCCN(CCCCC)C(=O)[C@H](CCC(=O)O)NC(=O)[C@H](Cc1ccc(OP(=O)(O)O)cc1)NC(=O)Cc1ccccc1
8,16.7,CCCCCN(CCO)C(=O)[C@H](CCC(=O)O)NC(=O)[C@H](Cc1ccc(OP(=O)(O)O)cc1)NC(C)=O
9,5.7,CCCCCN(CCCCC)C(=O)[C@H](CCC(=O)O)NC(=O)[C@H](Cc1ccc(OP(=O)(O)O)cc1)NC(=O)c1ccc([N+](=O)[O-])cc1
10,27.2,CCCCCN(CCCCC)C(=O)[C@H](CCC(=O)O)NC(=O)[C@H](Cc1ccc(OP(=O)(O)O)cc1)NC(=O)CCCc1ccccc1
11,155,CCCCCN(CCCCC)C(=O)[C@H](CSCc1ccccc1)NC(=O)[C@H](Cc1ccc(OP(=O)(O)O)cc1)NC(C)=O
12,79.7,CCCCCN(CCCCC)C(=O)[C@H](CCC(=O)O)NC(=O)[C@H](Cc1ccc(OP(=O)(O)O)cc1)NC(=O)OCc1ccccc1
13,11.6,CC(=O)N[C@@H](Cc1ccc(OP(=O)(O)O)cc1)C(=O)N[C@@H](CCC(=O)O)C(=O)N(C)CCCc1c[nH]c2ccccc12
14,17.7,CCCCCN(CCCCC)C(=O)[C@H](CCC(=O)O)NC(=O)[C@H](Cc1ccc(OP(=O)(O)O)cc1)NC(=O)CCc1cccnc1
15,32.7,CCCCCN(CCCCC)C(=O)[C@H](CCC(=O)O)NC(=O)[C@H](Cc1ccc(OP(=O)(O)O)cc1)NC(=O)COCc1ccccc1
16,29.7,COc1ccc2[nH]cc(CCNC(=O)[C@H](CCC(=O)O)NC(=O)[C@H](Cc3ccc(OP(=O)(O)O)cc3)NC(C)=O)c2c1

# From ChEMBL document CHEMBL1131573, “Potent dipeptide inhibitors of the pp60c-src SH2 domain” (J Med Chem, 1998)
